Structures can show the parent of a compound that is named as a salt.
Tests used:
Experiment in all cases: antifungal susceptibility testing (MIC, MFC), extended spectrum
Candida albicans A39 = assay type: cell-based; conditions: Candida albicans A39
From the text: (§1) Antifungal susceptibility testing for compounds set forth in Examples 1-20 is discussed hereinbelow. The fungi that were employed included two reference strains, C. neoformans var. neoformans H99 and C. albicans A39 and the following clinical isolates: (1) two strains of fluconazole-resistant C. neoformans var. neoformans (135.95 and 114.96); (2) two strains of C. neoformans var. gattii (119.95 and 114.95); (3) two strains of fluconazole-resistant C. albicans (102.96 and 103.96); and (4) one strain each of Torulopsis glabrata (142.91), Candida parapsilosis (111.96), Candida krusei (132.91), C. tropicalis (110.96), Candida lusitaniae (111.92), Fusarium solani (152.89), Aspergillus fumigatus (168.95), and Aspergillus flavus (112.96). Antifungal susceptibility testing was performed using an RPMI-1640 medium (Sigma Chemical Co., St. Louis, Mo.) with glutamine, without sodium bicarbonate, and buffered at pH 7.0 with 0.165 M morpholine-propanesulfonic acid (MOPS).
(§2) In vitro susceptibility testing in the form of Minimum Inhibitory Concentration (MIC) experiments were performed using the broth macrodilution method according to the recommendations of the National Committee for Clinical Laboratory Standards (see 1995 manual). The only difference compared to the standardized procedure was the choice of drug dilutions ranging from 100 to 0.09 μg/ml. Briefly, this procedure specifies an inoculum grown at 35° C. and adjusted to a concentration of 0.5-2.5×10^3 CFU/ml with an incubation of the test performed at 35° C. and reading at 48 hours for all yeasts except for C. neoformans which is interpreted at 72 hr.
(§3) Minimum Fungicidal Concentration (MFC) experiments were adapted from a method by McGinnis (McGinnis, M. R., (1980) "Susceptibility testing and bioassay procedure", p. 431, Academic Press, Inc., New York). Briefly, 10 μl aliquots from tubes with growth inhibition were plated onto Sabouraud agar plates. The lowest drug concentration that yielded three or fewer yeasts colonies was recorded as the MFC.
(§4) Antifungal susceptibility testing for compounds set forth in Examples 21-28 is discussed hereinbelow. […]
(§5) Minimum Fungicidal Concentration (MFC) experiments were adapted from a method by McGinnis (McGinnis, M. R., (1980) "Susceptibility testing and bioassay procedure", p.431, Academic Press, Inc., New York). […] The lowest drug concentration that yielded 3 or fewer yeasts colonies was recorded as the MFC. […]

C. albicans 102.96 = assay type: cell-based, Candida albicans; conditions: Candida albicans, C. albicans 102.96, fluconazole-resistant
From the text: as §1, §2, §3
(§6) Antifungal susceptibility testing for compounds set forth in Examples 21-28 is discussed hereinbelow. The fungi that were employed included two quality control reference strains, C. neoformans var. neoformansH99 and C. albicans A39 and the following clinical isolates: (1) four strains of C. neoformans var. neoformans (167.95; 135.95; 114.96; and 133.95) of which three were fluconazole-resistant>64 μg/ml (135.95; 114.96; and 133.95); (2) two strains of C. neoformans var. gattii (119.95 and 114.95); (3) two strains of fluconazole-resistant>64 μg/ml C. albicans (102.96 and 103.96); and (4) one strain each of C. glabrata (142.91), Candida parapsilosis (111.96), Candida krusei (132.91), C. tropicalis (110.96), Candida lusitaniae (111.92), Fusarium solani (152.89), Aspergillus fumigatus (168.95), Rhizopus arrhizus (117.89), Paecilomyces lilacinus (137.90), and Aspergillus flavus (112.96). Antifungal susceptibility testing was performed using an RPMI-1640 medium (Sigma Chemical Co., St. Louis, Mo.) with glutamine, without sodium bicarbonate, and buffered at pH 7.0 with 0.165 M morpholinepropanesulfonic acid (MOPS).
as §3, with “p.431,” for “p. 431,”, “3” for “three”, “MFC. Several drugs were also rescreened with a subculture of 100 μl aliquots from tubes with no growth and there was no change in MFC.” for “MFC.”

C. albicans 103.96 = assay type: cell-based, Candida albicans; conditions: Candida albicans, C. albicans 103.96, fluconazole-resistant
From the text: as §1, §2, §3, §6
as §3, with “p.431,” for “p. 431,”, “3” for “three”, “MFC. Several drugs were also rescreened with a subculture of 100 μl aliquots from tubes with no growth and there was no change in MFC.” for “MFC.”

C. krusei 132.91 = assay type: cell-based, Candida krusei; conditions: Pichia kudriavzevii
Description: Antifungal susceptibility testing for compounds set forth in Examples 1-20 is discussed hereinbelow. […]
as §2, with “The only difference compared to the standardized procedure was the choice of drug dilutions ranging from 100 to 0.09 μg/ml.” left out
as §5, with “p. 431,” for “p.431,”, “three” for “3”
as §5

C. tropicalis 110.96 = assay type: cell-based; conditions: Candida tropicalis
From the text: as §1, §2, §3, §4, §5

[1] = tested on: Torulopsis glabrata 142.91; assay type: cell-based; conditions: Nakaseomyces glabratus
From the text: as §1, §2, §3, §4, §5

C. neoformans 114.96 = assay type: cell-based, C. neoformans var. neoformans; conditions: Cryptococcus neoformans, C. neoformans 114.96, fluconazole-resistant
From the text: as §1
as §2, with “The only difference compared to the standardized procedure was the choice of drug dilutions ranging from 100 to 0.09 μg/ml.” left out
as §5, with “p. 431,” for “p.431,”, “three” for “3”
as §5

## CC(C)NC(=N)c1ccc2nc(-c3ccc4c(c3)Cc3cc(-c5nc6ccc(C(=N)NC(C)C)cc6[nH]5)ccc3-4)[nH]c2c1 [Compound 57, 2,7-Bis[2-(5-N-isopropylamidino)benzimidazoyl]fluorene hydrochloride]
Candida albicans A39
  MFC: 1.56 µg/mL
Candida albicans A39; 48 hours, read-out: MIC80
  MIC: 0.78 µg/mL
C. albicans 102.96
  MFC: 12.5 µg/mL
C. albicans 102.96; 48 hours, read-out: MIC80
  MIC: 1.56 µg/mL
C. albicans 103.96
  MFC: 12.5 µg/mL
C. albicans 103.96; 48 hours, read-out: MIC80
  MIC: 1.56 µg/mL
C. krusei 132.91
  MFC: 0.78 µg/mL
C. krusei 132.91; 48 hours, read-out: MIC80
  MIC: 0.78 µg/mL
C. tropicalis 110.96
  MFC: 1.56 µg/mL
C. tropicalis 110.96; 48 hours, read-out: MIC80
  MIC: 0.78 µg/mL
[1]
  MFC: 0.78 µg/mL
[1]; 48 hours, read-out: MIC80
  MIC: 0.78 µg/mL
C. neoformans 114.96
  MFC: 0.78 µg/mL
C. neoformans 114.96; 72 hr, read-out: MIC80
  MIC: 0.78 µg/mL

Reference: US6326395A, “Antifungal activity of dicationic molecules” (priority 1999, dated 2001)
